{"source": "patent US20210196714A1", "about": "“COMPOSITIONS AND METHODS FOR TREATING DISORDERS CHARACTERIZED WITH ABERRANT RAS/MAPK SIGNALING” (Duke University, priority 2018, published 2021)", "key": {"[1]": {"system": "kmt2d+/−×kmt2d+/− progeny", "assay": "CE defect in stable kmt2d mutant intercross progeny", "type": "in vivo, zebrafish", "conditions": "100 mM dmDf, 1 dpf", "description": "(§1) FIG. 12: Treatment with dmDf rescues the defects of stable kmt2d mutant. kmt2d+/− adults were in-crossed and the embryos were then collected at 1 dpf, 2 dpf and 5 dpf to assess dmDf efficacy. […] Error bars show SEM (standard error of the mean).\n(§2) Although the small molecule testing data in CRISPR F0 mosaic models are consistent with morphant phenotypes (and rescue), experiments recognized the necessity of testing the potential efficacy of dmDf in a stable genetic model that is a better genotypic proxy to human patients. […] In addition to examining proliferation of cells in the brain, experiments assessed whether neural differentiation is affected (see, Van Laarhoven, P. M. et al. Hum Mol Genet 24, 4443-53 (2015)).\n(§3) For convergence and extension (CE) phenotyping, embryos were scored as described (see, Leitch, C. C. et al. Nat Genet 40, 443-8 (2008)) at the 8-10 somite stage, and images were captured using an AZ100 microscope and NIS Elements software (Nikon). […] The distance between Meckel's (MK) and ceratohyal (CH) cartilages was measured on ventral bright field images with Image J (NIH). […] Fluorescence signal on embryo heads was imaged with the Nikon AZ100 microscope and DS-Qi1MC digital camera using […] Z-stacks to generate extended depth of focus images. Cell numbers were quantified using the ImageJ ICTN plugin (NIH). […]"}, "[2]": {"system": "kdm6a morphants", "assay": "Brain cell proliferation (pHH3 immunostaining) in kdm6a morphants", "type": "in vivo, zebrafish", "conditions": "100 nM, 2 dpf, listed as dmDf", "description": "Intellectual disability represents a major phenotype in KS, with some studies reporting almost 90% of patients to be affected (see, Wessels, M. W., et al. Clin Dysmorphol 11, 95-102 (2002)). […] Previous studies have shown that defects in proliferation in the developing zebrafish brain can be a proxy for neurodevelopmental and neurocognitive traits, especially in the context of microcephaly (see, Borck, G. et al. Genome Res 25, 609 (2015); Brooks, S. S. et al. Genetics 198, 723-33 (2014); O'Rawe, J. A. et al. Am J Hum Genet 97, 922-32 (2015); Wortmann, S. B. et al. Am J Hum Genet 96, 245-57 (2015)), a phenotype reported commonly in KS (see, Matsumoto, N. & Niikawa, N. Am J Med Genet C Semin Med Genet 117C, 57-65 (2003)).\nas §3"}, "[3]": {"system": "zebrafish embryos", "assay": "Toxicity test in zebrafish embryos", "type": "in vivo", "experimental": "(§4) FIG. 1: In vivo screen using BRAF/MEK/ERK inhibitors. (a) Flow chart of the experimental design. […] For the primary screen, 24 compounds were assessed for their ability to rescue the convergent-extension (CE) phenotype of zebrafish kmt2d morphants, followed by rescue tests of additional phenotypes (jaw and brain) within the kmt2d morphant, or CE of additional genetic KS models. (b) Toxicity results. Twenty embryos at the 8-cell stage were incubated in egg water containing 100 nM, 1 μM, and 10 μM of the 26 compounds. After 24 hours, larvae were scored for toxicity. Black bar: death; grey bar: abnormal morphology; white bar: nontoxic. (c) Embryos were injected with kmt2d-MO at the 2-4 cell stage and soaked in egg water containing 100 nM of each compound at the 8-cell stage. After 24 hours, larvae were scored for CE. […] The efficacy of each compound was determined by a chi-square test in which Class I and Class II were considered together.\n(§5) To guard against possible bias, the tool and negative control compounds were interspersed across the experiment and the zebrafish phenotyping team was blinded to the identity of each compound. Typical of small molecule storage, each of the 29 compounds was dissolved in dimethyl sulfoxide (DMSO). […] Next, each compound was diluted serially with egg water and toxicity tested by assaying the percentage of abnormal or dead embryos across three different concentrations (10 μM, 1 μM, 100 nM; FIG. 1B)."}, "[4]": {"assay": "Toxicity test in zebrafish embryos", "type": "in vivo", "conditions": "zebrafish, in vivo; read-out: LC50 (lethal concentration required to kill 50% of the population)", "experimental": "as §4, §5"}, "[5]": {"system": "kmt2d+/−×kmt2d+/− progeny", "assay": "Jaw defect in stable kmt2d mutant intercross progeny", "type": "in vivo, zebrafish", "conditions": "100 mM dmDf, 5 dpf", "description": "as §1, §2, §3"}}, "note": "“Also recorded” adds a separate entry of the source."}
{"smiles": "CC(C)c1nc(-c2cccc(NS(=O)(=O)c3c(F)cccc3F)c2F)c(-c2ccnc(N)n2)s1", "note": "[Compound 8, desmethyl-Dabrafenib]", "values": [{"measurement": "CE defect", "setting": "[1]", "result": "ameliorates significantly"}, {"measurement": "embryos showing Class I or Class II CE defects", "setting": "[1]; p<0.001", "result": 20, "unit": "%"}, {"measurement": "total number of proliferating (pHH3+) cells in brain", "setting": "[2]", "result": "significantly increases pHH3+ proliferating cells; also recorded: restored the total number of proliferating cells to wild type levels"}, {"measurement": "toxicity at the concentrations used for pMEK test", "setting": "[3]; 100 nM or 500 nM", "result": "lack of toxicity"}, {"measurement": "toxicity: pathology (abnormal or dead embryos)", "setting": "[3]; 100 nM, 24 hours", "result": "safe"}, {"measurement": "LC50 relative to effective in vivo exposure (greater by)", "setting": "[3]; LC50 vs 0.26 nM exposure", "result": "four"}, {"measurement": "overt pathologies in zebrafish embryos", "setting": "[3]; zebrafish, in vivo", "result": "induced no overt pathologies"}, {"measurement": "LC50 at 24 h", "setting": "[4]", "result": "1 to 10", "unit": "µM"}, {"measurement": "mandibular length / jaw defect", "setting": "[5]", "result": "rescues significantly; also recorded: rescue of the mandibular length"}]}
